{"source": "paper PMC7142328", "about": "(Journal of natural products, 2018)", "key": {"5-HT3A receptor": {"target": "T1, 5-HT3A receptor (Rattus norvegicus, UniProt P35563)", "T1 sequence (P35563 24-483)": "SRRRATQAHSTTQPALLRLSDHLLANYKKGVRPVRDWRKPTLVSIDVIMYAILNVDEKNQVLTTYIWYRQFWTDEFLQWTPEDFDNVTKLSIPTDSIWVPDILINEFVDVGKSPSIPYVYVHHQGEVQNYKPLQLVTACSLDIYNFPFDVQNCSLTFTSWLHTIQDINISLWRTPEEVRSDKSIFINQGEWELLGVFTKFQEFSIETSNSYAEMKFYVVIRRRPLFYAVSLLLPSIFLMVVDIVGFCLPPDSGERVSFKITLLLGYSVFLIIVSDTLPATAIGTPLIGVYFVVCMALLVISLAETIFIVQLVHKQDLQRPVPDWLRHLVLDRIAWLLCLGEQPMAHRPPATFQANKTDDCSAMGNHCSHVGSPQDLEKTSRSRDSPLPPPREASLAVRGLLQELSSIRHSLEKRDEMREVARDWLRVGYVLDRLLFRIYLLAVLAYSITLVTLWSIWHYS", "assay": "Two-electrode voltage clamp electrophysiology in Xenopus oocytes, 5-HT3A", "format": "cell-based"}, "rat α3β4 nAChR [1]": {"target": "T2, rat α3β4 nAChR (Rattus norvegicus, UniProt P04757+P12392)", "T2 sequence (P12392 21-495)": "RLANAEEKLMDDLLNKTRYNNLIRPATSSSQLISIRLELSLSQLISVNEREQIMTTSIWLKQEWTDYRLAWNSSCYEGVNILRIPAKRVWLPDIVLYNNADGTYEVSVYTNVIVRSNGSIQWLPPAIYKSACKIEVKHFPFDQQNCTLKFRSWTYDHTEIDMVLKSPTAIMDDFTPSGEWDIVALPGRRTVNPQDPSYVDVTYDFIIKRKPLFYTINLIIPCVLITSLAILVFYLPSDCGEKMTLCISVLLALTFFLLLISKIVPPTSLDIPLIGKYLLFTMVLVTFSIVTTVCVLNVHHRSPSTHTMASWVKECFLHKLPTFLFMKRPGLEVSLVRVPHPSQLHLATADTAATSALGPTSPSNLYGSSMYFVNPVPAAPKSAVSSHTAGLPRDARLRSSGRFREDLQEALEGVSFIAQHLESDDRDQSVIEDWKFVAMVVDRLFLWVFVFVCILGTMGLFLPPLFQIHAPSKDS", "T2 sequence (P04757 26-499)": "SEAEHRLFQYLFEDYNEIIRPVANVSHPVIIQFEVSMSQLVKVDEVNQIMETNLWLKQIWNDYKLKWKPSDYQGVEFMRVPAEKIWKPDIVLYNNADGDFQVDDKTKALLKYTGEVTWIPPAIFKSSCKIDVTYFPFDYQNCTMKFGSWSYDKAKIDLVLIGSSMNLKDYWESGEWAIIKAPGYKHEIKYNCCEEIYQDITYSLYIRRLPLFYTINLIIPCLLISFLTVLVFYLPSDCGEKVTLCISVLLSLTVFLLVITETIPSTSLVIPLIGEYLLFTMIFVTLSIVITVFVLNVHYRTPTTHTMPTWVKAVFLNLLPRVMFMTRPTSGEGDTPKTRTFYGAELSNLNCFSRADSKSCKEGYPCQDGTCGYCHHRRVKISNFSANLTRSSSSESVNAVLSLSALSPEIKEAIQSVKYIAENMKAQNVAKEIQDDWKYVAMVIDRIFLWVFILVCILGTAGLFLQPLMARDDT", "assay": "cell-based", "format": "cell-based"}, "Swiss-Webster mice [2]": {"tested_on": "Swiss-Webster mice", "conditions": "cited from earlier work"}, "In-vivo toxicity": {"assay": "In-vivo toxicity", "conditions": "male, Swiss-Webster, mouse, in vivo, iv"}, "Human α4β2 nAChR": {"target": "Human α4β2 nAChR (Homo sapiens, UniProt P17787+P43681)", "sequence (P43681 29-627 limits assumed)": "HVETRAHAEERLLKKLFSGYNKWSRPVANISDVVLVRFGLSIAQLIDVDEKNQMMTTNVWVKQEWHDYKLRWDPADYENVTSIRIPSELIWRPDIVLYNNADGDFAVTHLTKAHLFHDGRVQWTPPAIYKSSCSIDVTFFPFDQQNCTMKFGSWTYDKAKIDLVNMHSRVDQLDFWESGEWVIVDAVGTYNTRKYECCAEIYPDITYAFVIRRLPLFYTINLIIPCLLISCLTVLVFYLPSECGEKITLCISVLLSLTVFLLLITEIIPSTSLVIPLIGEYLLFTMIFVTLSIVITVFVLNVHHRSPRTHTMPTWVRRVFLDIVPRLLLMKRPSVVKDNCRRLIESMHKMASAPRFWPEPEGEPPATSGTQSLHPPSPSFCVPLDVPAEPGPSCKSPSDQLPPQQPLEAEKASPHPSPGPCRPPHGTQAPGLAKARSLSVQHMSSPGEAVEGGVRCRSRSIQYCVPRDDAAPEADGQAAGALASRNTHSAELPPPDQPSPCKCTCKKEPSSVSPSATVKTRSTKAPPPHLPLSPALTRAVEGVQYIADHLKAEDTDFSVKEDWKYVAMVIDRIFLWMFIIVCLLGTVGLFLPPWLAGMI", "sequence (P17787 26-502)": "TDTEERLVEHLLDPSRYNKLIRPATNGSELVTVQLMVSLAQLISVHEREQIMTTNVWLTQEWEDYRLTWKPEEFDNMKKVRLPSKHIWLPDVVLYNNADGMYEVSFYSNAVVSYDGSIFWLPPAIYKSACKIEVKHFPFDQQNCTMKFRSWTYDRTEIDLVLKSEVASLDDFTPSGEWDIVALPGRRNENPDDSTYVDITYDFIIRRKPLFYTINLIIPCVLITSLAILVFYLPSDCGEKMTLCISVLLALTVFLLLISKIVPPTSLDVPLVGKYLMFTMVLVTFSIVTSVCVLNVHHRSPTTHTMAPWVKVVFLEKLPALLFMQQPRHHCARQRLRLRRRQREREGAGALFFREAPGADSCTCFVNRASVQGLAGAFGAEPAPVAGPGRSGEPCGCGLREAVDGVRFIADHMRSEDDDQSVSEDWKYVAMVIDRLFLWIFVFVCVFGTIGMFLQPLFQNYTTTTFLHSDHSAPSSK", "format": "cell-based", "conditions": "for agonist character, α4β2: relative to nicotine"}, "rat α4β2 nAChR [3]": {"target": "T3, rat α4β2 nAChR (Rattus norvegicus, UniProt P09483+P12390)", "T3 sequence (P09483 31-630)": "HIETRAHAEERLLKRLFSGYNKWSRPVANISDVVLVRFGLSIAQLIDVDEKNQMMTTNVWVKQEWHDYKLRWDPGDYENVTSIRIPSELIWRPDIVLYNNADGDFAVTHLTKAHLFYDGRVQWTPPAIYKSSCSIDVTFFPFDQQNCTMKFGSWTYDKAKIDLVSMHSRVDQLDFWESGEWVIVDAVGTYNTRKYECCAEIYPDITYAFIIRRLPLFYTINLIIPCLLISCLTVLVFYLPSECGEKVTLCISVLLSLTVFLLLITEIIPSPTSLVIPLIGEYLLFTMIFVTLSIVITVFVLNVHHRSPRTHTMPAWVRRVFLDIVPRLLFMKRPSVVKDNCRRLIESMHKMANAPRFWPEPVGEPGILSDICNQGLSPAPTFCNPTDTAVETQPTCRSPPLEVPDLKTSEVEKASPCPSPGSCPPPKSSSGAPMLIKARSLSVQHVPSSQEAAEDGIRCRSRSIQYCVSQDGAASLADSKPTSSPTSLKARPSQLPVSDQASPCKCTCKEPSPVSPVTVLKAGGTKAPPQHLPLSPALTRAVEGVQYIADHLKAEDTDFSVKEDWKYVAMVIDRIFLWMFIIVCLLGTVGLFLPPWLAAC", "T3 sequence (P12390 25-500)": "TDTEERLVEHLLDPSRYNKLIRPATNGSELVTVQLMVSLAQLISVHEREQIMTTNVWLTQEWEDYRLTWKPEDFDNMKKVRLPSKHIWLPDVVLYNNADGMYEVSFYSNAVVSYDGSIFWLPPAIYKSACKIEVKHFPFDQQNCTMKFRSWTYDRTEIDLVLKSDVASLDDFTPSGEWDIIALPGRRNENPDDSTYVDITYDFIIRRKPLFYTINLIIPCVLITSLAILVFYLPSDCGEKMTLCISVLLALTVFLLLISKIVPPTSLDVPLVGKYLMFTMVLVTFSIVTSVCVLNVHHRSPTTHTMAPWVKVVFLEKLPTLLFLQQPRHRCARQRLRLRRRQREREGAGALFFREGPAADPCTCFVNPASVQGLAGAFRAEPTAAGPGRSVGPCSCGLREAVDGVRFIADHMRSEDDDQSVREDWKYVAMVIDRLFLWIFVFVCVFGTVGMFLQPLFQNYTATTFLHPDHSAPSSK", "format": "cell-based"}, "rat α7 nAChR [4]": {"target": "T4, rat α7 nAChR (Rattus norvegicus, UniProt Q05941)", "T4 sequence (Q05941 23-502)": "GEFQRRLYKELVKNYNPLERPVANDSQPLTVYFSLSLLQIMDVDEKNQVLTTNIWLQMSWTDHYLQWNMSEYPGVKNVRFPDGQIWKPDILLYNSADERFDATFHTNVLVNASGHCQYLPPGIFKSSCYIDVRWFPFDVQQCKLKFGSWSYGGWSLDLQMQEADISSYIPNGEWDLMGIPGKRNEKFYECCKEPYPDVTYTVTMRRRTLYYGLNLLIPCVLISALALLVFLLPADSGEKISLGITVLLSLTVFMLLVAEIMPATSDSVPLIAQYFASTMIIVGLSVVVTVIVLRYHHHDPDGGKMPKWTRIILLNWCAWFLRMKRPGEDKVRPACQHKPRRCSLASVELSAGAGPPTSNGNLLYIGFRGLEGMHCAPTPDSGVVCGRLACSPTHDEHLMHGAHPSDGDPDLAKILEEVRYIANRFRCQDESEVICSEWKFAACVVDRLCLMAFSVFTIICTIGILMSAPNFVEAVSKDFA", "format": "cell-based"}, "rat α4β2 nAChR [5]": {"target": "T3, rat α4β2 nAChR", "format": "binding"}, "rat α3β2 nAChR": {"target": "rat α3β2 nAChR (Rattus norvegicus, UniProt P04757+P12390)", "sequence (P04757 26-499)": "as the sequence (P04757 26-499) above", "sequence (P12390 25-500)": "as the sequence (P12390 25-500) above", "assay": "Two-electrode voltage clamp electrophysiology in Xenopus oocytes, α3β2", "format": "cell-based"}, "rat α3β4 nAChR [6]": {"target": "T2, rat α3β4 nAChR", "format": "binding"}, "[7]": {"target": "native nAChR in rat forebrain (Rattus norvegicus, UniProt P09483+P12390)", "sequence (P12390 25-500)": "as above", "sequence (P09483 31-630)": "as the sequence (P09483 31-630) above", "format": "binding"}, "Swiss-Webster mice [8]": {"tested_on": "Swiss-Webster mice", "assay": "In-vivo toxicity", "conditions": "mice; for signs of toxicity: intravenous"}, "nAChR": {"tested_on": "nAChR", "assay": "Overall nAChR pharmacology, summary statements", "conditions": "most receptors tested"}, "rat α7 nAChR [9]": {"target": "T4, rat α7 nAChR", "format": "binding"}}, "data": [{"compound": "CN1[C@@H]2CC[C@H]1C[C@@H](OC(=O)c1c[nH]c3ccccc13)C2", "note": "[tropisetron, reference compound]", "values": [{"measurement": "block of currents induced by 100 μM (±)-1", "setting": "5-HT3A receptor", "value": "completely blocks"}]}, {"compound": "CN1CCC[C@H]1c1cccnc1", "note": "[2S-(−)-Nicotine, reference compound]", "values": [{"measurement": "Emax", "setting": "rat α3β4 nAChR [1]; read-out: Emax Rat α3β4", "value": "107 ± 3", "unit": "%"}, {"measurement": "LD50 in mouse", "setting": "Swiss-Webster mice [2]", "value": 0.3, "unit": "mg/kg"}]}, {"compound": "Clc1ccc(C2CC3CCC2N3)cn1", "note": "(racemic) [(±)-2, epibatidine, reference compound]", "values": [{"measurement": "LD50", "setting": "In-vivo toxicity", "value": "0.0015 ± 0.0003", "unit": "mg/kg"}]}, {"compound": "Clc1ccc2c(n1)O[C@@]13CC[C@@H]1NC[C@@H]23", "note": "[(2aS,4aR,9aR)-ent-1]", "values": [{"measurement": "agonist character, α4β2", "setting": "Human α4β2 nAChR; 86Rb efflux", "value": "full agonist"}, {"measurement": "Hillslope α4β2", "setting": "rat α4β2 nAChR [3]", "value": 1.7}, {"measurement": "Hillslope α7", "setting": "rat α7 nAChR [4]", "value": 1.3}]}, {"compound": "CO[C@H]1CC=C2CCN3CCC4=C(CC(=O)OC4)[C@]23C1", "note": "[DHβE, dihydro-β-erythroidine, reference compound]", "values": [{"measurement": "block of currents induced by 10 nM (±)-1", "setting": "rat α4β2 nAChR [3]; 2 min pre-application of 10 nM DHβE, n=4, α3β2 and α4β2 currents", "value": "completely blocked"}]}, {"compound": "Clc1ccc2c(n1)OC13CCC1NCC23", "note": "(racemic) [(±)-1, phantasmidine]", "values": [{"measurement": "Eudismic Ratio, 86Rb efflux α3β4", "setting": "rat α3β4 nAChR [1]", "value": 47}, {"measurement": "difference in functional potency vs 2a, α3β4", "setting": "rat α3β4 nAChR [1]; 86Rb efflux", "value": 18, "unit": "fold"}, {"measurement": "agonist character, α3β4", "setting": "rat α3β4 nAChR [1]; 86Rb efflux, relative to nicotine", "value": "near-full agonist"}, {"measurement": "LD50", "setting": "In-vivo toxicity", "value": "0.27 ± 0.19", "unit": "mg/kg"}, {"measurement": "Eudismic Ratio, 86Rb efflux α4β2", "setting": "Human α4β2 nAChR", "value": 280}, {"measurement": "difference in functional potency vs 2a, α4β2", "setting": "Human α4β2 nAChR; 86Rb efflux", "value": 8, "unit": "fold"}, {"measurement": "agonist character, α4β2", "setting": "Human α4β2 nAChR; 86Rb efflux", "value": "very potent partial agonist"}, {"measurement": "lower binding affinity than epibatidine (2a), α4β2", "setting": "rat α4β2 nAChR [5]", "value": 10, "unit": "fold"}, {"measurement": "higher affinity for α4β2 over α3β4 receptors", "setting": "rat α4β2 nAChR [5]; binding", "value": "at least 30 fold"}, {"measurement": "Hillslope α3β2", "setting": "rat α3β2 nAChR", "value": 1.57}, {"measurement": "agonist character, α3β2", "setting": "rat α3β2 nAChR; vs acetylcholine, oocytes", "value": "partial agonist"}, {"measurement": "lower binding affinity than epibatidine (2a), α3β4", "setting": "rat α3β4 nAChR [6]", "value": 50, "unit": "fold"}, {"measurement": "lower binding affinity than epibatidine (2a), native receptors in rat forebrain", "setting": "[7]", "value": 25, "unit": "fold"}, {"measurement": "Hillslope α4β2", "setting": "rat α4β2 nAChR [3]", "value": 1.6}, {"measurement": "agonist character, α4β2", "setting": "rat α4β2 nAChR [3]; vs acetylcholine, oocytes", "value": "partial agonist"}, {"measurement": "Hillslope 5HT3A", "setting": "5-HT3A receptor", "value": 1.7}, {"measurement": "agonist character, 5-HT3A", "setting": "5-HT3A receptor; vs meta-chlorophenylbiguanide (mCPBG), oocytes", "value": "partial agonist"}, {"measurement": "Hillslope α7", "setting": "rat α7 nAChR [4]", "value": 1.8}, {"measurement": "agonist character, α7", "setting": "rat α7 nAChR [4]; vs acetylcholine, oocytes", "value": "full agonist"}]}, {"compound": "Clc1ccc2c(n1)O[C@]13CC[C@H]1NC[C@H]23", "note": "[(2aR,4aS,9aS)-1, phantasmidine]", "values": [{"measurement": "LD50", "setting": "In-vivo toxicity", "value": "0.072 ± 0.014", "unit": "mg/kg"}, {"measurement": "less toxic than racemic 2a", "setting": "Swiss-Webster mice [8]; LD50 comparison", "value": 48, "unit": "fold"}, {"measurement": "signs of toxicity", "setting": "Swiss-Webster mice [8]; dose of 40 μg/kg", "value": "piloerection, slight elevated respiration and complete recovery in less than 1 min"}, {"measurement": "signs of toxicity", "setting": "Swiss-Webster mice [8]; dose of 50 μg/kg", "value": "piloerection, elevated respiration, hyperactivity (running) progressing to tonic clonic seizures and death in less than 30 sec"}, {"measurement": "eudismic ratio of toxicity", "setting": "Swiss-Webster mice [8]", "value": "around 100"}, {"measurement": "less potent than epibatidine", "setting": "nAChR", "value": "~ 10 fold"}, {"measurement": "more potent than nicotine", "setting": "nAChR", "value": "~ 100 fold"}, {"measurement": "higher affinity than the distomer ent-1", "setting": "rat α4β2 nAChR [5]; across the subtypes and forebrain of Table 1", "value": "30-44 fold"}, {"measurement": "affinity less than 2a, α7", "setting": "rat α7 nAChR [9]", "value": 2, "unit": "fold"}, {"measurement": "Hillslope α4β2", "setting": "rat α4β2 nAChR [3]", "value": 1.8}, {"measurement": "Eudismic Ratio, electrophysiology α7", "setting": "rat α7 nAChR [4]", "value": 5}, {"measurement": "Hillslope α7", "setting": "rat α7 nAChR [4]", "value": 1.5}]}, {"compound": "CC(=O)OCC[N+](C)(C)C", "note": "[Acetylcholine, reference compound]", "values": [{"measurement": "Hillslope α4β2", "setting": "rat α4β2 nAChR [3]", "value": "24 ± 6 (1.0 ± 0.1) 1.0"}, {"measurement": "Imax α4β2", "setting": "rat α4β2 nAChR [3]", "value": "24 ± 6 (1.0 ± 0.1) 1.0"}, {"measurement": "Hillslope α7", "setting": "rat α7 nAChR [4]", "value": 1.5}, {"measurement": "Imax α7", "setting": "rat α7 nAChR [4]; normalized to 1 mm acetylcholine", "value": "1.0 ± 0.1"}]}]}
